# Laboratory results as given in patent US8323680B1, “Nutritional composition” (Nestec S.A., priority 1999, dated 2012).
# Tests used:
# mice = details: oral, anandamide 300 mgkg body weight−1, 2-arachidonoyl glycerol 400 mgkg body weight−1; cited from earlier work
# animals = details: injected into animals; cited from earlier work
# [1] = Effects of oral administration of cannabimimetic lipids on ambulation, rearing, immobility, analgesia, body temperature and fecal output (FIG. 3-5); format: in vivo; details: for immobility, difference from control group / rearing, difference from control group / body temperature, difference from control group: p<0.01-0.05, ANOVA, Newman-Keuls
# male Rj:NMRI mice = assay: ELEVATED PLUS MAZE TEST, number of entries in the closed arms; format: in vivo; details: for Number of Entries in the Closed Arms, average entries: diets for 42 days, agent intraperitoneally 60 minutes before test
# Description: In order to show the biological activity of the composition of the present invention on animal's behaviour the effect of dietary poly-unsaturated fatty acids with and without a CB-1 receptor antagonist on anxiolytic-like responses in mice were tested. To this end, the ELEVATED PLUS MAZE TEST was applied (adapted after Handley and Mithani (Naunyn. Schmied. Arch. Pharmacol. 327: 1-5, 1984).
# For the experiments male Rj:NMRI mice, obtained from Elevage Janvier, Le Genest-Saint-Isle France and weighing 10-11 g at delivery and 33-51 grams on day 42 were used. The mice were housed 10 per cage in wire cages with bedding and normal light cycle. They received ad libitum quantities of bottled distilled water and purified powdered diets (7.5 g/mouse) in ceramic cups (10/group) for 42 days. The Food was maintained at −80° C. in daily aliquots under nitrogen, thawed each afternoon before administration to mice. Uneaten food was discarded daily.
# The principle of the test resides in that anxiolytic agents increase the number of entries into the open and often the closed arms of the […], mice should want to move and explore the spaces of the open and closed arms rather than staying still in the middle).
# Mice were given the following agents intraperitoneally 60 minutes before the Plus Maze test:
# All diets contained 90% fat-free AIN93G rodent diet in powder form (Lot 9350-5, Dyets, Inc., Bethlehem, Pa.), 0.4% milk fat, 1.2% palm olein, 1.9% Trisun sunflower oil, 1.5% soybean oil and 2.1-5.1% medium chain triacylglycerol oil. Parts of the medium chain triacylglycerol oil were replaced with 1.1% algal oil (providing 0.5 dietary wt.-% arachidonic acid) in diet D, 1.9% fish oil (providing 0.5 dietary wt.-% docosahexaenoic acid) in diet E, and with 1.1% algal oil and 1.9% fish oil in diets F and G. Dietary groups are summarized in the table below:
# The body weight, weight gain and the food intake of the mice was monitored throughout the experiment. […]
Compound,bioactivity when taken orally (mice),effects of pure doses when injected (animals),"immobility, difference from control group ([1]; oral administration)","rearing, difference from control group ([1]; oral administration)","body temperature, difference from control group [1]",analgesia ([1]; oral administration),"Number of Entries in the Closed Arms, average entries (male Rj:NMRI mice)","Number of Entries in the Closed Arms, difference vs. group A (male Rj:NMRI mice; p-value = 0.19)"
N-arachidonylethanolamine [anandamide],have bioactivity,calming effects and effects on the immune system,significantly different,significantly different,significantly different,,,
"CCCCCc1cc(O)c2c(c1)OC(C)(C)[C@@H]1CCC(C)=C[C@@H]21 [THC, 9-tetrahydrocannabinol]",,,significantly different,significantly different,significantly different,significantly increased analgesia,,
2 arachidonylglycerol [Diet 2-AG],have bioactivity,calming effects and effects on the immune system,significantly different,significantly different,significantly different,,,
CN1C(=O)CC(=O)N(c2ccccc2)c2cc(Cl)ccc21 [Clobazam],,,,,,,6.3,
Cc1c(C(=O)NN2CCCCC2)nn(-c2ccc(Cl)cc2Cl)c1-c1ccc(I)cc1 [C],,,,,,,2.3,There was no significant difference (p-value = 0.19).
CCCCCCCC/C=C\CCCCCCCC(N)=O [oleamide],,calming effects and effects on the immune system,significantly different,significantly different,significantly different,,,
